Assay results reported in ChEMBL document CHEMBL3046368, “Synthesis of benzothiazole derivatives and their biological evaluation as anticancer agents” (2012).

Legend:
Format in all cases: functional
SF-539 = assay: Cytotoxicity against Homo sapiens (human) SF539 cells after 48 hr by SRB assay; settings: SF-539, 48 h
IGROV-1 = assay: Cytotoxicity against Homo sapiens (human) IGROV1 cells after 48 hr by SRB assay; settings: IGROV-1, 48 h
K562 = assay: Cytotoxicity against Homo sapiens (human) K562 cells after 48 hr by SRB assay; settings: K562, 48 h
[1] = Cytotoxicity against Homo sapiens (human) CNSC cells assessed as cell growth at 10^-5 M after 48 hr by SRB assay relative to control; settings: read-out: Activity
NCI/ADR-RES = assay: Cytotoxicity against Homo sapiens (human) NCI/ADR-RES cells after 48 hr by SRB assay
U-251 = assay: Cytotoxicity against Homo sapiens (human) U251 cells after 48 hr by SRB assay; settings: U-251, 48 h
[2] = Cytotoxicity against Homo sapiens (human) ovarian cancer cells assessed as cell growth at 10^-5 M after 48 hr by SRB assay relative to control; settings: Cancer cell lines, read-out: Activity

Compound | GI50 (SF-539) [nM] | GI50 (IGROV-1) [nM] | GI50 (K562) [nM] | growth at 10 µM [1] [%] | GI50 (NCI/ADR-RES) [nM] | GI50 (U-251) [nM] | growth at 10 µM [2] [%]
N#Cc1ccc(NC(=O)Nc2nc3ccc(OC(F)(F)F)cc3s2)cc1 | 2880 | 2000 | 537 | 2.6 | 1550 | 1410 | 8.95
O=C(Nc1ccc(F)cc1)Nc1nc2ccc(OC(F)(F)F)cc2s1 | 2240 | 3890 | 3550 | 21.1 | 3390 | 3980 | 12.9
